Reference: patent US20250177359A1, “COMPOUNDS FOR USE IN THE TREATMENT OF CANCER AND INFLAMMATORY CONDITIONS” (priority 2022, published 2025)
Like-named read-outs stand apart in the source and are kept apart here.

Molecular target: T1, TNKS2 (Homo sapiens, UniProt Q9H2K2)
T1 sequence (Q9H2K2 1-1166): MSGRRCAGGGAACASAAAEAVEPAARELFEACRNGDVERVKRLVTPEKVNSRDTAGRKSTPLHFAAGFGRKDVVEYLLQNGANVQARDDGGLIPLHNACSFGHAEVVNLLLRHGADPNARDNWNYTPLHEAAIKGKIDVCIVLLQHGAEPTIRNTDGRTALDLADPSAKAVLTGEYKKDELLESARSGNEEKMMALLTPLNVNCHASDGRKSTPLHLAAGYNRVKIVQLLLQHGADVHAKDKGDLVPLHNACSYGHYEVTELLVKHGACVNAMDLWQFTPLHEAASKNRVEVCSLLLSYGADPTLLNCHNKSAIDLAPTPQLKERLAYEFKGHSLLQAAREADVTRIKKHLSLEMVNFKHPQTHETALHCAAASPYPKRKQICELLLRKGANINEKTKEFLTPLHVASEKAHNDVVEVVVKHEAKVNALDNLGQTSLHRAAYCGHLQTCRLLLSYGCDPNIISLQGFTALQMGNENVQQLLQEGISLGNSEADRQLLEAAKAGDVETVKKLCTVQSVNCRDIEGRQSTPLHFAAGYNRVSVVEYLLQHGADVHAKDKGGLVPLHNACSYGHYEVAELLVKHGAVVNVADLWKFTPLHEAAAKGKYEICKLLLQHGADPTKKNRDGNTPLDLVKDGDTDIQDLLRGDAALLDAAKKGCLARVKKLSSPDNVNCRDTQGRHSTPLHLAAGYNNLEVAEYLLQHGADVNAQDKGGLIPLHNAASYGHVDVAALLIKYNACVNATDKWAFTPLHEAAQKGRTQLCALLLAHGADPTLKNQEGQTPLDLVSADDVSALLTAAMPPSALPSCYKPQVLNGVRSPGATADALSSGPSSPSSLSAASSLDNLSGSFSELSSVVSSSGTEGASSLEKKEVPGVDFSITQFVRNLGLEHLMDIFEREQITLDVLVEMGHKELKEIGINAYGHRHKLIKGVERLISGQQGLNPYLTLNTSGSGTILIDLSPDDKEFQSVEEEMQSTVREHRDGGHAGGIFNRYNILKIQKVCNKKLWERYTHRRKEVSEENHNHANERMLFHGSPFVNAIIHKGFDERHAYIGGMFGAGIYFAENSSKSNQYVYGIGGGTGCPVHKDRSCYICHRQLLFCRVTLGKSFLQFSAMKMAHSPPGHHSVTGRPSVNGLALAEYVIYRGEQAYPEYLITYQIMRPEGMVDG
Test: biochemical
Description: All starting materials, reagents, and solvents were purchased from common commercial suppliers and were used as such without further purification. […] Organic solutions were dried over anhydrous Na2SO4 and concentrated with rotary evaporator at low pressure. All the reactions were routinely checked by thin-layer chromatography (TLC) on silica gel 60F254 (Merck) and visualized by using UV and iodine. Flash chromatography separations were carried out on Merck silica gel 60 (mesh 230-400) or by using automated Buchi Reveleris X2-UV with column FP Ecoflex Si 12 g. Yields were of purified products and were not optimized. ^1HNMR spectra were recorded at 400 MHz (Bruker Avance DRX-400), while ^13CNMR spectra were recorded at 101 MHz (Bruker Avance DRX-400). Chemical shifts are given in ppm (δ) relative to TMS. […] Mating constant (J) are reported in Hz. The purity of the tested compounds was evaluated by HPLC analysis using Jasco LC-4000 instrument equipped with a UV-Visible Diode Array Jasco-MD4015 (Jasco Corporation, Tokyo, Japan), and XTerra MS C18 column, 5 μm×4.6 mm×150 mm (Waters Corporation, Massachusetts, USA). Chromatograms were analyzed by ChromNAV2.0 Chromatography Data System software. […] The peak retention time (ret. time) is given in minutes. […] 1-Isobutoxy-4-methoxy-2-nitrobenzene (113). Isobutyl alcohol (0.6 mL, 6.43 mmol) was added, under nitrogen atmosphere at 0° C., to a suspension of NaH (0.26 g, 6.43 mmol) in dry DMF. After 15 minutes, 1-fluoro-4-methoxy-2-nitrobenzene 112 (1 g, 5.84 mmol) was also added and the reaction mixture was stirred at 80° C. for 4 h. […] (2-Isobutoxy-5-methoxyphenyl)amine (114). Zn (1.57 g, 24 mmol) and NH4C1 (2.45 g, 40 mmol) were added to a solution of 113 (0.46 g, 2 mmol) in acetone/H2O (50 mL, ratio 5:1). The reaction mixture was stirred at 60° C. for 3 h and, then, it was filtered over celite. […] N-(2,5-diethoxyphenyl)thiourea (55). […] N-(2-isobutoxy-5-methoxyphenyl)thiourea (115). […] A solution of Br2 (0.2 mL, 3.3 mmol) in CHCl3 (5 mL) was slowly added to a suspension of 45 (0.6 g, 3.3 mmol) in CHCl3 (13 mL), at 0° C. The reaction mixture was stirred at r.t. for 4 h and, then, a 10% solution of Na2SO3 in water was added to the mixture. […] 4,7-Diethoxy-1,3-benzothiazol-2-amine (66). […] 4-Isobutoxy-7-methoxy-1,3-benzothiazol-2-amine (116). […] Hydrazine hydrate (0.23 mL, 4.77 mmol) and CH3COOH (0.12 mL, 2.1 mmol) were added to a suspension of 56 (0.29 g, 1.59 mmol) in ethylene glycol (8 mL), and the reaction mixture was stirred for 24 h at 125° C. […] 6-Ethyl-2-hydrazino-1,3-benzothiazole (69). […] 6-Ispropyl-2-hydrazino-1,3-benzothiazole (70). […] 2-Hydrazino-4,7-dimethoxy-1,3-benzothiazole (73). […] 2-Hydrazino-5,7-dimethoxy-1,3-benzothiazole (75). […] 2-Hydrazino-4,7-Diethoxy-1,3-benzothiazole (77). […] 2-Hydrazino-5-methyl[1,3]thiazolo[5,4-b]pyridine (100). […] A solution of 67 (0.13 g, 0.65 mmol) in formic acid (5 mL) was refluxed for 10 h. The reaction mixture was then poured into ice/water and the pH was neutralized using a saturated solution of NaHCO3.

[1] = read-out: TNKS2 IC50, NAD+ consumption assay, > less than 50% inhibition at highest concentration, >> no inhibition

Row | SMILES | IC50 [1] | further results
1 | Oc1ccc2c(c1)sc1nncn12 [Compound 10] |  | IC50 (read-out: TNKS2 IC50, NAD+ consumption assay): 0.37 µM
2 | Cc1ccc2c(c1)sc1nnc(N)n12 [Compound 22, 7-Methyl[1,2,4]triazolo[3,4-b][1,3]benzothiazol-3-amine] | 5.7 µM | 
3 | COc1ccc(OC)c2c1sc1nnc(N)n12 [Compound 28, 5,8-Dimethoxy[1,2,4]triazolo[3,4-b][1,3]benzothiazol-3-amine] | 10 µM | 
4 | Nc1nnc2sc3cc(O)ccc3n12 [Compound 109, 3-Amino[1,2,4]triazolo[3,4-b][1,3]benzothiazol-7-ol] |  | IC50: ~0.2 µM
